Active and inactive are the calls of the source. The rule behind the calls is not given here.
The molecules below were run against G-protein coupled receptor 151 (Homo sapiens) (UniProt Q8TDV0) (assay: GPR151 activator potency, dose response, cell-based (AID 1508610)). Conditions: cell-based GPR151 activation reporter.
Sequence of G-protein coupled receptor 151 (Homo sapiens) (Q8TDV0 whole entry, looked up): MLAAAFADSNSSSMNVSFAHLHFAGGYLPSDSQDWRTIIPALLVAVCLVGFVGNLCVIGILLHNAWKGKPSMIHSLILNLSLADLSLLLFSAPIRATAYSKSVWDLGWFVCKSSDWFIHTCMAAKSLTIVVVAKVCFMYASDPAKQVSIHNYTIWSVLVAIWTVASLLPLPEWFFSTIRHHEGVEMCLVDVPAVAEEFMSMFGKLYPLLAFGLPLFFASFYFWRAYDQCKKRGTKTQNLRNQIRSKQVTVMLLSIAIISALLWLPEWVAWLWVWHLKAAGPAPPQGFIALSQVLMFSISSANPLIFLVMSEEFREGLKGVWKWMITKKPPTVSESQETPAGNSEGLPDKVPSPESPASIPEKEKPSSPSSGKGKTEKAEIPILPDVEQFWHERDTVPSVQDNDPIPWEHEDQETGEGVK
O=C(CCCC(=O)N/N=C/c1cccc([N+](=O)[O-])c1)N/N=C/c1cccc([N+](=O)[O-])c1 was tested, and the EC50 was > 28 µM (inactive). With CCN(CC)c1ccc(NC(=O)/C=C\C(=O)O)cc1 the EC50 was > 28 µM (inactive). CCn1c(/C=C/C=C2\N(C)c3ccccc3C2(C)C)[n+](Cc2ccccc2)c2ccccc21 gave an EC50 of 2.75 µM. In the case of CN1CCN(C(=O)c2ccc(-c3nc4ccc(C(=O)NCCOc5ccccc5)cc4s3)cc2)CC1, the EC50 is reported as > 28.1 µM (inactive). For O=C(N1CCN(Cc2ccccc2)CC1)C(Cl)(Cl)Cl, the EC50 was > 28 µM (inactive). With COc1cccc(/C=C/c2nc3ccccc3c(=O)[nH]2)c1O the EC50 was > 32.3 µM (inactive). In the case of COc1cc(N)c(Cl)cc1C(=O)OCCOc1ccc(Br)cc1, the EC50 is reported as > 30.8 µM (inactive). For OC(c1cccnc1)c1ccc2c(c1)CN(Cc1cccc(Cl)c1)CCO2 (configuration not stated), the EC50 was > 28 µM (inactive). With COc1ccc(C(=O)N(C)Cc2ccccc2)cc1I the EC50 was > 28 µM (inactive). Cn1c(/C=C/c2ccccc2)nc2ccccc21 was tested, and the EC50 was > 37 µM (inactive). With Nc1ncnc2c1ccn2[C@@H]1O[C@H](CO)[C@@H](O)[C@H]1O the EC50 was 3.11 µM. In the case of NP(=O)(Oc1ccc(Cl)cc1)Oc1ccc(Cl)cc1, the EC50 is reported as > 28.2 µM (inactive). C=CCN1C(=O)CC(C(=O)OC)C12CCN(C1CCN(C(=O)OCC)CC1)CC2 (configuration not stated) was tested, and the EC50 was > 28 µM (inactive). In the case of Cc1c(N=Nc2c(O)[nH]c(=S)[nH]c2=O)c(=O)n(-c2ccccc2)n1C, the EC50 is reported as > 28 µM (inactive). For CCC(C)C1N=C2c3ccccc3N=C(SCC(=O)N3CC(C)CC(C)C3)N2C1=O (configuration not stated), the EC50 was > 29.4 µM (inactive). With COC(=O)c1ccc(Nc2ncnc3c2cnn3-c2ccc(C)cc2C)cc1 the EC50 was 0.00158 µM. In the case of O=C(CSc1nc(NC2CCCCC2)c2ccccc2n1)c1ccc(F)cc1, the EC50 is reported as > 28.1 µM (inactive). For Cc1sc2ncnc(N3CCN(c4ccccn4)CC3)c2c1C, the EC50 was > 32.6 µM (inactive). COc1ccc(-c2nnc3sc(NC(=O)C(C)C)nn23)cc1OC was tested, and the EC50 was > 28 µM (inactive). In the case of O=C(Nc1ncc([N+](=O)[O-])s1)c1cccs1, the EC50 is reported as > 28 µM (inactive). In the case of CC(C)NC(=O)c1cnc2scc(-c3ccccc3)n2c1=O, the EC50 is reported as > 28 µM (inactive). CC(C)CC(=O)NCC1CCC2(CCN(Cc3ccccc3F)CC2)O1 (configuration not stated) was tested, and the EC50 was > 28 µM (inactive). With O=C(Nc1ncc([N+](=O)[O-])s1)c1cccnc1 the EC50 was > 31.4 µM (inactive). For CON(C)C(=O)c1ccc(OCc2ccnc(Cl)c2)cc1, the EC50 was > 28 µM (inactive). For COc1ccc(CCn2c(=S)[nH]c3cc(C(=O)N4CCOCC4)ccc3c2=O)cc1OC, the EC50 was > 22.2 µM (inactive). O=C(Nc1ncc(C(O)(C(F)(F)F)C(F)(F)F)s1)c1ccccc1Cl was tested, and the EC50 was > 30.5 µM (inactive). With O=C(Nc1cc(Cl)ccc1Cl)c1ccccc1O the EC50 was > 34 µM (inactive). CC1CCCC(NCc2c(C(=O)O)n(Cc3ccccc3F)c3ccccc23)C1C (configuration not stated) was tested, and the EC50 was > 28 µM (inactive). With Clc1ccc(-c2nc(-c3ccccn3)no2)c(Cl)c1 the EC50 was > 29.7 µM (inactive). In the case of O=C(Nc1nc(-c2ccc(I)cc2)cs1)c1ccc(Cl)s1, the EC50 is reported as > 24.9 µM (inactive). For O=c1oc2ccccc2cc1-c1cn2ccccc2n1, the EC50 was > 34.7 µM (inactive). In the case of O=C(Nc1ccc(NC(=O)c2cccc3c(Br)cccc23)cc1)c1ccco1, the EC50 is reported as > 24.4 µM (inactive). With CCOc1ccc(-c2n[nH]c(=S)n2-c2ccccc2)cc1 the EC50 was “inactive”. For COc1ccc(-c2noc(-c3cc4ccc(OC)cc4oc3=O)n2)cc1, the EC50 was > 28 µM (inactive). For COCCNC(=O)/C(C#N)=C/C=C/c1ccccc1, the EC50 was > 30.6 µM (inactive). With CCC(C)OC(=O)C1=C(C)NC2=C(C(=O)CC(c3ccc(OC)cc3)C2)C1c1cc(OC)c(OC)cc1Br (configuration not stated) the EC50 was > 22.4 µM (inactive). For COc1ccc(-c2nc(-c3ccccn3)no2)cc1, the EC50 was > 35.9 µM (inactive). In the case of COC(=O)c1ccc(Cl)cc1NC(=O)N(C(C)C)C1CCN(C(C)=O)CC1, the EC50 is reported as > 28 µM (inactive). With CCOC(=O)N1CCc2nc(NC(=O)c3ccnn3CC)sc2C1 the EC50 was > 28 µM (inactive). In the case of O=C(O)C1CCCN(c2nn3cc(-c4ccc(F)cc4)nc3s2)C1 (configuration not stated), the EC50 is reported as > 28 µM (inactive). With Cc1cc2nc(-c3ccc[nH]c3=O)[nH]c2cc1C the EC50 was > 28.1 µM (inactive). CCCCCNC(=O)c1c(O)c2c([nH]c1=O)CCCC2 was tested, and the EC50 was > 34.1 µM (inactive). For O=S(=O)(NN=C1CCCCCC1)c1ccccc1, the EC50 was > 28 µM (inactive). O=C(CCCOc1ccccc1)NNC(=O)c1ccccc1 was tested, and the EC50 was > 30.1 µM (inactive). For COc1cc([N+](=O)[O-])ccc1NC(=O)Nc1ccc(Cl)cc1F, the EC50 was > 28 µM (inactive). With CC[C@@H](C(=O)C(C)[C@@H](O)[C@H](C)CCc1ccc(C)c(O)c1C(=O)O)C1OC(CC)(C2CC[C@](O)(CC)[C@H](C)O2)C[C@@H]1C (some centres not stated) the EC50 was “inactive”. In the case of CC(=O)Oc1ccccc1C(=O)Nc1ncc([N+](=O)[O-])s1, the EC50 is reported as > 28 µM (inactive). In the case of COc1cccn2c(C(=O)Nc3ccc(Cl)cc3)c(C(F)(F)F)nc12, the EC50 is reported as > 28 µM (inactive). COc1ccc(-n2nc3c(c2NC(=O)c2c(F)cccc2F)CS(=O)(=O)C3)cc1 was tested, and the EC50 was > 31.2 µM (inactive). In the case of COc1ccc(/C=C2/NC(=O)N(c3cccc(Cl)c3)C2=O)c(OC)c1, the EC50 is reported as > 28 µM (inactive). In the case of CSc1nccc(-c2cc(Cl)c3c(c2)CC(CNC(=O)c2ccoc2)O3)n1 (configuration not stated), the EC50 is reported as > 28 µM (inactive). In the case of COc1ccccc1N1CCN(C(=O)c2cnc(N3CCN(c4ncccn4)CC3)c3ccccc23)CC1, the EC50 is reported as > 20.1 µM (inactive). For CCOc1ccc(/C=C2\SC(=S)N(CC(=O)Nc3ccc(O)cc3)C2=O)cc1, the EC50 was > 28.4 µM (inactive). With COC(=O)c1ccc(C2C(C#N)=C(N)Oc3n[nH]c(C45CC6CC(CC(C6)C4)C5)c32)cc1 (configuration not stated) the EC50 was “inactive”. In the case of O=C(Nc1nc2ccccc2s1)c1ccccc1F, the EC50 is reported as > 31.9 µM (inactive). For CCOCCOC(=O)C1=C(C)Nc2ccc(C)cc2S1, the EC50 was > 28 µM (inactive). O=C1CC(c2ccc(O)cc2)Oc2ccccc21 (configuration not stated) was tested, and the EC50 was > 28 µM (inactive). In the case of CCOC(=O)c1cc(S(=O)(=O)N2CCN(c3ccccc3F)CC2)cn1C, the EC50 is reported as > 28 µM (inactive). In the case of Cc1ccc(-c2nc(-c3ccccn3)no2)cc1Cl, the EC50 is reported as > 35 µM (inactive). For CCCOc1ccc(NC(=O)CC2C(=O)N(c3ccc(Cl)cc3)C(=S)N2Cc2ccncc2)cc1 (configuration not stated), the EC50 was > 23.5 µM (inactive). Work on CCc1ccccc1N(CC(=O)Nc1ccccc1Cl)S(C)(=O)=O yielded an EC50 of 0.00153 µM. For O=C(O)c1ccc(-n2cc(-c3ccc(Cl)cc3)cn2)cc1, the EC50 was > 28 µM (inactive). For C[C@H]1NC(=O)[C@H]2CN(C(=O)NCc3ccccc3)CCN2C1=O, the EC50 was > 28 µM (inactive). For CSc1nc(-c2ccccc2)cn1-c1ccc(F)cc1, the EC50 was > 35.5 µM (inactive). With Cc1nccc2[nH]c(=O)c(C(=O)NC3CCN(Cc4ccccc4)CC3)cc12 the EC50 was > 28 µM (inactive). For CCOCC(=O)NC12CC3CC(CC(C3)C1)C2, the EC50 was > 44.2 µM (inactive). In the case of Fc1ccc2nc(N3CCN(c4nc5ccccc5s4)CC3)sc2c1, the EC50 is reported as > 28 µM (inactive). For O=C(Nc1noc2ccccc12)c1c(F)cccc1F, the EC50 was > 28 µM (inactive). For Cc1cc2c(cc1C)C(c1cc([N+](=O)[O-])ccc1Cl)CC(=O)N2 (configuration not stated), the EC50 was > 33.6 µM (inactive). In the case of COC(=O)c1c(NC(=O)c2cc(-c3ccc(CC(C)C)cc3)nc3ccccc23)sc(C)c1-c1ccccc1, the EC50 is reported as > 23.4 µM (inactive). In the case of Cc1ccn(CCC(=O)NCC2Cc3cc(-c4cnccn4)cc(Cl)c3O2)n1 (configuration not stated), the EC50 is reported as > 28 µM (inactive). In the case of COc1ccc(CCNC(=O)/C=C\C(=O)O)cc1OC, the EC50 is reported as > 28 µM (inactive). In the case of O=C(O)c1ccc(OCc2ccnc(Cl)c2)cc1, the EC50 is reported as > 28 µM (inactive). Cc1sc(NC(=O)c2cc3ccccc3oc2=O)nc1-c1ccc(Br)cc1 was tested, and the EC50 was > 18.6 µM (inactive). For Cc1ccc(NC(=O)CCNc2c(N3CCCC3)c(=O)c2=O)cc1Cl, the EC50 was > 28 µM (inactive). For NC[C@H]1O[C@H](O[C@H]2[C@H](O)[C@@H](O[C@H]3O[C@H](CO)[C@@H](O)[C@H](N)[C@H]3O)[C@H](N)C[C@@H]2N)[C@H](N)C[C@@H]1O, the EC50 was > 28 µM (inactive). For COc1ccc(C[C@H](N)C(=O)N[C@@H]2[C@@H](CO)OC(n3cnc4c(N(C)C)ncnc43)[C@@H]2O)cc1 (some centres not stated), the EC50 was > 28 µM (inactive). For Cc1n[nH]c(C)c1S(=O)(=O)NCc1ccc(F)cc1, the EC50 was > 28 µM (inactive). O=C(COC(=O)CCS(=O)(=O)c1ccccc1Cl)NC(=O)NCc1ccco1 was tested, and the EC50 was > 28.7 µM (inactive). In the case of Cc1ccc(-c2nnc3sc(NC(=O)CC(C)C)nn23)cc1, the EC50 is reported as > 28 µM (inactive). For CCN(CC)C(=O)Cn1cnc2sc(C(=O)Nc3cc(C)ccc3OC)c(C)c2c1=O, the EC50 was > 25.7 µM (inactive). With COc1ccc(-c2nc(Nc3ccc(C)c(Cl)c3)c3ccccc3n2)cc1OC the EC50 was > 26.1 µM (inactive). With CC[C@@H]1NC(=O)[C@H]2CN(C(=O)c3cccc(Cl)c3)CCN2C1=O the EC50 was > 28 µM (inactive). In the case of CCN1/C(=C/c2ccc3cc(C)ccc3[n+]2CC)Sc2ccc(-c3ccccc3)cc21, the EC50 is reported as “inactive”. Cc1ccc(C(=O)Nc2ncc([N+](=O)[O-])s2)cc1 was tested, and the EC50 was > 31.4 µM (inactive). For COc1ccc(OC(C)C(=O)Nc2cc(C)ccc2C)cc1 (configuration not stated), the EC50 was > 32 µM (inactive). For Cn1c(COc2ccc(Cl)cc2)nnc1SCC(=O)NCC(F)(F)F, the EC50 was > 28.4 µM (inactive). For CN1CCN(c2ccc(-c3ccc(C(=O)NCCOc4ccccc4)s3)cc2)CC1, the EC50 was > 27.7 µM (inactive). With COc1ccc(NC(=O)CCC(=O)Oc2ccc(C)cc2)cc1 the EC50 was > 28 µM (inactive). For O=C(O)CN1CCN(Cc2ccc(Cl)cc2)C1=O, the EC50 was > 28 µM (inactive). In the case of Cc1cccc(-c2cnc(C)nc2C2CCCN(C(=O)CN(C)C)C2)c1 (configuration not stated), the EC50 is reported as > 28 µM (inactive). O=C1c2ccccc2C(Nc2ccc(Cl)cc2)N1c1cccnc1 (configuration not stated) was tested, and the EC50 was > 28 µM (inactive). COc1ccc(N2C(=O)NC3CC2(C)Oc2c(OC)cccc23)c(OC)c1 (configuration not stated) was tested, and the EC50 was > 28.7 µM (inactive). With COc1cc(OC)cc(C(=O)NC2CCCCCCC2)c1 the EC50 was > 39.8 µM (inactive). COCCn1c(C)cc(C(=O)COC(=O)c2cccc(O)c2)c1C was tested, and the EC50 was > 30.4 µM (inactive). With CCOC(=O)c1ccc(NC(=O)CSc2cn(Cc3ccccc3Cl)c3ccccc23)cc1 the EC50 was > 24.2 µM (inactive). For COc1cc(C2Nc3ccccc3NC3=C2C(=O)CC(c2ccc4c(c2)OCO4)C3)ccc1OC(C)=O (configuration not stated), the EC50 was > 23.3 µM (inactive).

From PubChem BioAssay AID1508610 (The Scripps Research Institute Molecular Screening Center, 2020)
